Molecular target: Vibrio cholerae MARTX toxin cysteine protease domain (CPD) (Vibrio cholerae serotype O1, UniProt Q9KS12)
Assay type: biochemical
Details: increasing amounts of InsP6, 2 hrs at 4° C.

Vibrio cholerae MARTX toxin cysteine protease domain (CPD), sequence (Q9KS12 3440-3650 limits assumed): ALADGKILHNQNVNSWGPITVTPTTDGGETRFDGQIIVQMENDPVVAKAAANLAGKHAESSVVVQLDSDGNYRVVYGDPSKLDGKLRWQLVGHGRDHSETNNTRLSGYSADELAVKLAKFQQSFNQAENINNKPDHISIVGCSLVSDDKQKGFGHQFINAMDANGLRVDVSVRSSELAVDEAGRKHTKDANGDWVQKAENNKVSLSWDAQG

**Q.** `O=P(O)(O)OC1C(OP(=O)(O)O)C(OP(=O)(O)O)C(OP(=O)(O)O)C(OP(=O)(O)O)C1OP(=O)(O)O` (stereo not shown) [InsP6, inositol hexakisphosphate] was tested. Which “release of GFP from Ni2+-NTA agarose beads (CPD autoprocessing)” value did it give?
**A.** stimulated the release of GFP

— US20130012687A1, “INDUCIBLE SELF-CLEAVING PROTEASE TAG AND METHOD OF PURIFYING RECOMBINANT PROTEINS USING THE SAME” (The Board of Trustees of the Leland Stanford Junior …, priority 2009, published 2013)
